Here are results for five compounds from patent US20220184075A1, “PHARMACEUTICAL COMPOSITION CONTAINING HDAC6 INHIBITOR AS ACTIVE INGREDIENT FOR PREVENTION OR TREATMENT OF ITCHING” (BNH RESEARCH CO.,LTD., priority 2018, published 2022).

One test deals with T1, HDAC6 (Homo sapiens, UniProt Q9UBN7).
T1 sequence (Q9UBN7 1-1215): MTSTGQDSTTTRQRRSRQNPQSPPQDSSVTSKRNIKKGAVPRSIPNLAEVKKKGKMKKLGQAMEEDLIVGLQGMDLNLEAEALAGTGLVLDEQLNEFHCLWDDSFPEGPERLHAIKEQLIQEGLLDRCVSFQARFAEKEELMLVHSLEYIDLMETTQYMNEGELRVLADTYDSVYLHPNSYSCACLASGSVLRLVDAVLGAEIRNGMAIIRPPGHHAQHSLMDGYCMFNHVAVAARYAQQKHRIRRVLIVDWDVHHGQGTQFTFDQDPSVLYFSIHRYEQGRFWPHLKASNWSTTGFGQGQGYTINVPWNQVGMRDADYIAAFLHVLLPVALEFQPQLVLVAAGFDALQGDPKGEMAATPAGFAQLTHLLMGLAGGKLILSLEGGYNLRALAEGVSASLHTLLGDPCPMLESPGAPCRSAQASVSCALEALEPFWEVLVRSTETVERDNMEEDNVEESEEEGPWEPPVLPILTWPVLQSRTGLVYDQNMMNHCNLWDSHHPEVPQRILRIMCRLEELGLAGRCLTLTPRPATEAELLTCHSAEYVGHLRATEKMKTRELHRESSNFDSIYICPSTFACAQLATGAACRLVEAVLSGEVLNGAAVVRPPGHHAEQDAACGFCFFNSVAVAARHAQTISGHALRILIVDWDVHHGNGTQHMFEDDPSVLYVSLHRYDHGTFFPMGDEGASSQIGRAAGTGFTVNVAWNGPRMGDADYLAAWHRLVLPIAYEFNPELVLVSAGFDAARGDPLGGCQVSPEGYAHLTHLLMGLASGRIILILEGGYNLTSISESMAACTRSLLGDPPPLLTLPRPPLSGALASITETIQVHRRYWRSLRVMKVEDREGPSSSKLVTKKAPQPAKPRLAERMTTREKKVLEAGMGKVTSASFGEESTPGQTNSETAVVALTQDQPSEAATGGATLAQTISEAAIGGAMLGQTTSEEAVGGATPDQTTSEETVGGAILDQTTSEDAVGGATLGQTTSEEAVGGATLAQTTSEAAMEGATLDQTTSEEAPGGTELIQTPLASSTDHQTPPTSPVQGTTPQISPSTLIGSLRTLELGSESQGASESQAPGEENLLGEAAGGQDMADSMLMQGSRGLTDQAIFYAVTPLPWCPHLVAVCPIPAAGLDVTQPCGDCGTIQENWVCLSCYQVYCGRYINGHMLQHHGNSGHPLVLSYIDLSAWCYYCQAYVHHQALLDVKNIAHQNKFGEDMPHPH
The settings on record: cited from earlier work; for Selectivity: HDAC6 inhibitor selectivity, in words; for IC50: HDAC6 inhibitor.

In test [1] the test system is trypsin-induced itching (scratching behavior). Briefly: Trypsin-induced scratching behavior in mice (cheek injection, bouts counted for 30 minutes). The format is in vivo, Male C57BL/6 mice. The settings on record: for number of scratching bouts compared with the only trypsin-injected mice: co-injected with 200 μg trypsin into skin of shaved right cheek, 30 minutes, 7.4 μg tubastatin A HCl or 61.4 ng M344, unpaired t-test. The protocol: Male C57BL/6 mice (6-week-old) were divided into groups of 3 to 5 animals, and isolated under a 12-hour light/dark cycle while being allowed to freely access water and food. Trypsin is diluted in phosphate buffered saline (PBS) to have the working concentration. […] All drug-containing stock solutions were stored in a freezer at −20 □, dissolved immediately prior to the behavioral experiment, and diluted with PBS to the final working concentration. For behavioral experiments, the right cheek of all mice was shaved, and the drug was injected after the acclimation period in an observation chamber for 2 days (2 hours/day) prior to the experiment date and 1 hour on the day of the experiment. The mice were subdued by being gently grabbed by a hand without anesthesia for drug treatment. All drugs were injected into the skin layer of the shaved right cheek at 20 μL using a 31-G insulin syringe. After returning to the observation chamber, all mice were videotaped for 30 minutes immediately after drug injection to evaluate itching behavior. For the behavioral experiment, the action of scratching the drug-injected site with a hind leg, and then placing the leg on the ground again or licking the site with a mouth was counted as 1 bout. All behavioral experiments were evaluated by testers in a blinded drug test. Statistical analysis for the experiments was performed using an unpaired t-test, and P<0.05 or P<0.01 was considered statistically significant (*: P<0.05; **: P<0.01). Data was expressed as mean±standard error (SEM).

As for `O=C(NO)c1cnc(NC2(c3cccc(F)c3)CCCCC2)nc1` [ACY-775], on HDAC6, the Selectivity result is listed as “Very high” and the IC50 – broadly, the concentration at which inhibition is half-maximal – is 0.0075 µM.
With `O=C(NO)C1=CCCC1` [BRD9757], at HDAC6, the Selectivity result was “Very high” and the IC50 was 0.03 µM.
As to `CN(C)c1ccc(C(=O)NCCCCCCC(=O)NO)cc1` [M344], the “number of scratching bouts compared with the only trypsin-injected mice” value in test [1] is “statistically significant smaller number of scratching bouts”. Besides, on HDAC6, the Selectivity result is recorded as “High” and the IC50 is 0.088 µM.
Take `CN1CCc2c(c3ccccc3n2Cc2ccc(C(=O)NO)cc2)C1` [Tubastatin A, tubastatin A]: the “number of scratching bouts compared with the only trypsin-injected mice” value in test [1] is recorded as “statistically significant smaller number of scratching bouts”.
Regarding trypsin, in test [1] (200 μg trypsin alone injected into cheek skin of normal mice, FIG. 1), the “scratching bouts for 30 minutes” value was “approximately 100 bouts”.
